The source made the active and inactive calls. The calls are words filed in the database; no cut-off is given here.
Tests used:
[1] = biological target: T1, Adenylate cyclase (Rattus norvegicus) (UniProt D4A3N4+P26770+Q04400+P26769+Q03343+P40146+Q8CFM9+P21932); test: Activation of rat striatal homogenate adenylate cyclase assessed as cAMP level at 100 uM after 2.5 mins relative to control
[2] = test system: Canis familiaris; test: Induction of vasodilation in intraarterially dosed anesthetized Mongrel dog at 3 umol; type: functional, organism-based; details: Canis lupus familiaris
[3] = biological target: T1, Adenylate cyclase (Rattus norvegicus); test: Inhibition of dopamine-induced adenylate cyclase activation in rat striatal homogenate assessed as enzyme activity at 100 uM after 2.5 mins relative to control; design: scale not given: the % may be the effect or the level left
[4] = biological target: T1, Adenylate cyclase (Rattus norvegicus); test: Activation of rat striatal homogenate adenylate cyclase assessed as cAMP level at 10 uM after 2.5 mins relative to control

Row | Activity [1] [%] | Activity [3] [%] | Activity [4] [%] | Compound | Activity [2]
1 | 150 | – | – | NCCc1ccc(O)c(O)c1 | –
2 | 92 | 149 | 100 | NC1Cc2cc(O)c(O)cc2-c2ccccc21 (stereo not given) | inactive

Source: ChEMBL document CHEMBL3244190, “2,3-Dihydroxy-9-amino-9,10-dihydrophenanthrene, a rigid congener of dopamine and isoapomorphine” (J Med Chem, 1978)
